Molecules are shown by their SMILES. Like-named read-outs stand apart in the source and are kept apart here.

What all share (format): physicochemical
A short description of series [1]: Hydration study by DVS analysis (hydration-dehydration cycles versus relative humidity). Here is the method:
Melting points (m.p.) of the intermediate detomidine free base and hydrochloride of Sample 5 measured in open capillary corresponded with the published literature and the DSC data and are presented in Table 5. In order to evaluate effect of humidity on different forms of detomidine, a hydration study was performed. Samples of detomidine free base and hydrochloride salt were subjected to DVS analysis. These observations are in accordance with the DVS results shown in FIGS. 5 and 6, for detomidine free base and detomidine HCl, respectively.
During the dehydration cycle, the monohydrate began to lose water at RH˜10% and converted into the anhydrate at RH=0%.
At the same time, the anhydrous form is not stable in atmospheric air and absorbs water at RH=30-50%.

Series [2] in a line: Solid form stability of the vacuum dried anhydrate, hermetically closed or exposed to atmospheric air. Here is the method:
The same monohydrate dried at elevated temperature (30-40 mbar 90° C.) converted completely into the anhydrous form.

Series [3] in a line: Re-slurry in water: conversion of the solid form without complete dissolution. To be noted: contact with water for 24 hrs, re-slurry at 24° C.
Series [4] in a line: Solubility in water (observation on the solid forms).

Consider `Cc1cccc(Cc2c[nH]cn2)c1C` [anhydrous form], for which the “stability in atmospheric air” value in series [1] (atmospheric air) was “not stable”. For the same compound, in series [1] (hydration cycle), the “RH at which the anhydrate absorbs water / transforms completely into the monohydrate” value is given as 30-50% and the “RH at which the anhydrate did not absorb water” value is reported as below 30%. Besides, the “water uptake and form conversion after exposure to atmospheric air” value in series [2] (after exposure to atmospheric air) was “absorbed water and converted to a mixture of anhydrate and monohydrate”. For the same compound, in series [2] (vacuum dried, hermetically closed), the “water uptake and form conversion, hermetically closed” value was “did not absorb water from the atmosphere and did not convert into the monohydrate”. Moreover, the “form conversion on contact with water” value in series [3] was “completely converted”.

`Cc1cccc(Cc2c[nH]cn2)c1C.Cl` [detomidine hydrochloride]: the “reproducibility of anhydrate-monohydrate interconversion” value in series [1] (four cycles of hydration-dehydration) is recorded as “good reproducibility”. The solubility in water entry in series [4] (water, hydrochloride formed with aqueous HCl) was “soluble”.

Turning to `Cc1cccc(Cc2c[nH]cn2)c1C` [monohydrate], the “absorption of additional water on increase of humidity” value in series [1] (RH 70% to RH>90%) is recorded as “did not lead to absorption of additional water”. In addition, in series [1] (dehydration cycle), the “RH at which the monohydrate began to lose water” value is reported as around 10% and the “RH at which the monohydrate converted into the anhydrate” value is recorded as 0%.

In the case of `Cc1cccc(Cc2c[nH]cn2)c1C` [detomidine free base, 4-[(2,3-dimethylphenyl)methyl]-1H-imidazole], the hygroscopicity result in series [1] (DVS, 24.4° C. (FIG. 5)) is recorded as “non-hygroscopic”. Further, the water absorbed result in series [1] (at relative humidity (RH)>50%) is reported as “more than 1%”. In addition, the solubility in water result in series [4] is “insoluble in water”.

For the compound `Cc1cccc(Cc2c[nH]cn2)c1C` [Sample 2], the “water level after absorption, cKF” value in series [1] (anhydrous detomidine HCl after hydration) was found to be 7.7%.

(Values after patent publication US20210323929A1, “Purified Detomidine, Process of Preparing and Methods of Use” (Clexio Biosciences Ltd., priority 2018, published 2021).)
